Experimental data published in patent US6211375A, “Pyridonecarboxylic acid derivatives or salts thereof and antibacterial agents containing the same as the active ingredient” (Wakunaga Pharmaceutical Co., Ltd., priority 1996, dated 2001).
Converted amounts (≈) assume the structure as drawn. Read-outs that look alike come from different tables or passages of the source.

Experiments:
[1] = tested on: S.aureus 209P; assay: Antibacterial Activity, minimum growth inhibitory concentration (MIC), S.aureus 209P; assay type: cell-based; details: Staphylococcus aureus, standard method of Japan Chemotherapy Society
Method: (§1) Minimum growth inhibitory concentration (MIC, μg/ml) was evaluated in accordance with the standard method of Japan Chemotherapy Society (Chemotherapy 29(1), 76, 1981). It should be noted that tosufloxacin was also evaluated for its minimum growth inhibitory concentration for the purpose of comparison.

[2] = tested on: P. aeruginosa IFO3445; assay: Antibacterial Activity, minimum growth inhibitory concentration (MIC), P. aeruginosa IFO3445; assay type: cell-based; details: Pseudomonas aeruginosa, standard method of Japan Chemotherapy Society
Method: as §1

[3] = tested on: ears; assay: Phototoxicity Test (abnormality in the ears of mice after UVA irradiation); assay type: in vivo, Female ICR mice; details: 40 mg/kg i.v., UVA 320 to 400 nm, 4 hours; for ear abnormality, point: 0 = no abnormality, 1 = very slight erythema, 2 = well defined erythema, 3 = moderate to severe erythema or edema
Method: Female ICR mice (5 to 6 week old) were intravenously administered with the test compound (40 mg/kg/10 ml), and irradiated with UVA (320 to 400 nm, 1.8 mW/cm^2 /sec) for 4 hours. Abnormality in the ears was monitored at 0 hour immediately after the irradiation and after 24 hours. The ear abnormality was evaluated by the following criteria: no abnormality (0 point), very slight erythema (1 point), well defined erythema (2 points), moderate to severe erythema or edema formation (3 points). Tosufloxacin which is a conventional known antibacterial agent was also tested in a similar way for the purpose of comparison.

[4] = Absorption and Excretion (urine and bile recovery rates after oral administration); assay type: in vivo, Male SD rats; details: rat, 20 mg/kg, rats, oral 20 mg/10 ml/kg
Method: A compound of the present invention was measured for its urine and bile recovery rates in rats after its oral administration to evaluate absorption and excretion of the compounds.
Male SD rats of 6 week old which had been fasted overnight were administered orally with 0.5% methylcellulose suspension of the test compounds (20 mg/10 ml/kg). The urine collection was continued until 24 hours after the administration. The concentration of the test compound in the urine was measured by paper disc method using Bacillus subtilis ATCC6633 for the test bacterium to determine the urine recovery rate.
Into choledoch duct of male SD rats of 6 week old which had been fasted overnight was inserted a polyethylene tube under etherization. After arousing, the rats were forcedly administered orally with the test compounds as in the case of the above (1), and bile collection was continued until 24 hours after the administration. The bile with no further treatment and the bile alkaline hydrolyzed (with 0.1N NaOH, 37° C., 1 hour) were measured for their concentration of the test compound by the same procedure as in the case of the above (1) to determine the bile recovery rate.

MIC [1] [µg/mL] | MIC [2] [µg/mL] | dose excreted at 24 h ([4]; bile, 0-24 hours, bile after alkaline hydrolysis (0.1N NaOH, 37° C., 1 hour), read-out: Recovery rate (24 hours), Bile*) [%] | dose excreted at 24 h ([4]; bile, 0-24 hours, bile with no further treatment, read-out: Recovery rate (24 hours), Bile) [%] | dose excreted at 24 h ([4]; urine and bile, 24 hours, total recovery rate, read-out: Recovery rate (24 hours), Total recovery rate) [%] | dose excreted at 24 h ([4]; urine, 0-24 hours, paper disc method with Bacillus subtilis ATCC6633, read-out: Recovery rate (24 hours), Urine) [%] | Compound | ear abnormality, occurrence ([3]; 0 hour after irradiation) | ear abnormality, point ([3]; 0 hour after irradiation) [point] | ear abnormality, occurrence ([3]; 24 hours after irradiation) | ear abnormality, point ([3]; 24 hours after irradiation) [point]
0.013 (≈ 0.0303 µM) | 0.2 (≈ 0.467 µM) |  |  |  |  | CNC1CN(c2c(F)cc3c(=O)c(C(=O)O)cn(-c4cc(N)c(F)cc4C)c3c2C)C1 [Compound of Ex. 6, 1-(3-amino-4-fluoro-6-methylphenyl)-6-fluoro-8-methyl-7-(3-methylaminoazetidin-1-yl)-1,4-dihydro-4-oxoguinoline-3-carboxylic Acid] | 0/3 | 0 | 0/3 | 0
0.006 (≈ 0.0143 µM) | 0.05 (≈ 0.12 µM) |  |  |  |  | Cc1c(N2CC(N)C2)c(F)cc2c(=O)c(C(=O)O)cn(-c3cc(N)c(F)cc3F)c12 [Compound of Ex. 1, 7-(3-aminoazetidin-1-yl)-1-(3-amino-4,6-difluorophenyl)-6-fluoro-8-methyl-1,4-dihydro-4-oxoguinoline-3-carboxylic Acid] | 0/3 | 0 | 0/3 | 0
0.006 (≈ 0.0139 µM) | 0.1 (≈ 0.231 µM) | 26.7 | 10.4 | 30.6 | 3.9 | Cc1c(N2CC(C)(N)C2)c(F)cc2c(=O)c(C(=O)O)cn(-c3cc(N)c(F)cc3F)c12 [Compound of Ex. 3, 7-(3-amino-3-methylazetidin-1-yl)-1-(3-amino-4,6-difluorophenyl)-6-fluoro-8-methyl-1,4-dihydro-4-oxoguinoline-3-carboxylic Acid] | 0/3 | 0 | 0/3 | 0
0.003 (≈ 0.00694 µM) | 0.1 (≈ 0.231 µM) |  |  |  |  | Cc1c(F)c(N2CC(N)C2)c(C)c2c1c(=O)c(C(=O)O)cn2-c1cc(N)c(F)cc1F [Compound of Ex. 10, 7-(3-aminoazetidin-1-yl)-1-(3-amino-4,6-difluorophenyl)-6-fluoro-5,8-dimethyl-4-oxo-1,4-dihydroquinoline-3-carboxylic Acid] | 0/3 | 0 | 0/3 | 0
0.013 (≈ 0.0303 µM) | 0.2 (≈ 0.467 µM) |  |  |  |  | Cc1cc(F)c(N)cc1-n1cc(C(=O)O)c(=O)c2cc(F)c(N3CC(C)(N)C3)c(C)c21 [Compound of Ex. 5, 7-(3-amino-3-methylazetidin-l-yl)-1-(3-amino-4-fluoro-6-methylphenyl)-6-fluoro-8-methyl-1,4-dihydro-4-oxoguinoline-3-carboxylic Acid] | 0/3 | 0 | 0/3 | 0
0.013 (≈ 0.0313 µM) | 0.2 (≈ 0.481 µM) |  |  |  |  | Cc1cc(F)c(N)cc1-n1cc(C(=O)O)c(=O)c2cc(F)c(N3CC(O)C3)c(C)c21 [Compound of Ex. 9, 1-(3-amino-4-fluoro-6-methylphenyl)-6-fluoro-7-(3-hydroxyazetidin-1-yl)-8-methyl-4-oxo-1,4-dihydroquinoline-3-carboxylic Acid] | 0/3 | 0 | 0/3 | 0
0.003 (≈ 0.00724 µM) | 0.1 (≈ 0.241 µM) |  |  |  |  | Cc1cc(F)c(N)cc1-n1cc(C(=O)O)c(=O)c2cc(F)c(N3CC(N)C3)c(C)c21 [Compound of Ex. 4, 7-(3-aminoazetidin-1-yl)-1-(3-amino-4-fluoro-6-methylphenyl)-6-fluoro-8-methyl-1,4-dihydro-4-oxoguinoline-3-carboxylic Acid] | 0/3 | 0 | 0/3 | 0
0.013 (≈ 0.0299 µM) | 0.1 (≈ 0.23 µM) |  |  |  |  | Cc1c(N2CC(N)C2)c(F)cc2c(=O)c(C(=O)O)cn(-c3cc(N)c(F)cc3Cl)c12 [Compound of Ex. 7, 7-(3-aminoazetidin-1-yl)-1-(3-amino-6-chloro-4-fluorophenyl)-6-fluoro-8-methyl-1,4-dihydro-4-oxoguinoline-3-carboxylic Acid] | 0/3 | 0 | 0/3 | 0
0.05 (≈ 0.124 µM) | 0.39 (≈ 0.965 µM) |  |  |  |  | NC1CCN(c2nc3c(cc2F)c(=O)c(C(=O)O)cn3-c2ccc(F)cc2F)C1 (stereo not shown) [Tosufloxacin, reference compound] | 4/5 | 1.8 | 4/5 | 0.8
0.006 (≈ 0.0143 µM) | 0.2 (≈ 0.477 µM) |  |  |  |  | Cc1c(N2CC(O)C2)c(F)cc2c(=O)c(C(=O)O)cn(-c3cc(N)c(F)cc3F)c12 [Compound of Ex. 8, 1-(3-amino-4,6-difluorophenyl)-6-fluoro-7-(3-hydroxyazetidin-1-yl)-8-methyl-4-oxo-1,4-dihydroquinoline-3-carboxylic Acid] | 0/3 | 0 | 0/3 | 0
0.006 (≈ 0.0139 µM) | 0.1 (≈ 0.231 µM) |  |  |  |  | CNC1CN(c2c(F)cc3c(=O)c(C(=O)O)cn(-c4cc(N)c(F)cc4F)c3c2C)C1 [Compound of Ex. 2, 1-(3-amino-4,6-difluorophenyl)-6-fluoro-8-methyl-7-(3-methylaminoazetidin-1-yl)-1,4-dihydro-4-oxoguinoline-3-carboxylic Acid] | 0/3 | 0 | 0/3 | 0
